# Literature values, collected in patent US12478593B2, “Formulations for hair growth” (JENIVISION INC., priority 2016, dated 2025).
# Columns and labels:
# [1] = test system: eyelash hair follicle growth cycle; settings: mouse eyelash model
# eyelashes = settings: humans
# [2] = Xalatan
compound,measurement,setting,value
CCNC(=O)CCC/C=C\C[C@@H]1[C@@H](/C=C/[C@@H](O)CCc2ccccc2)[C@H](O)C[C@@H]1O [bimatoprost],effect on anagen growth phase of eyelashes,[1],increased entry into anagen and extension of the anagen growth phase
same,eyelash growth,eyelashes,produces eyelash growth
CC(C)OC(=O)CCC/C=C\C[C@@H]1[C@@H](CC[C@@H](O)CCc2ccccc2)[C@H](O)C[C@@H]1O [latanoprost],stability in aqueous solution (de-esterification),[2],facile hydrolysis
